The numbers were not newly measured in the CATMoS acute toxicity set (Mansouri et al. 2021), which cites them from elsewhere.

Molecules are shown by their SMILES. Several values for one entry are separate records, joined by “and”; a condition that tells them apart may be missing. Identical values can stand only once.

The data set can be described thus: rat acute oral toxicity. To be noted: in vivo.
In the case of `CC1(C)C(C(=O)OC(C#N)c2cccc(Oc3ccccc3)c2)C1(C)C` (stereo not given), the 50% lethal dose (LD50) is 18 mg/kg. For the compound `CC(C1=C(CCN(C)C)Cc2ccccc21)c1ccccn1` (stereo not given), the LD50 was 618 mg/kg. As to `C=CCOC(=O)CCCCCCC`, the LD50 was 570 mg/kg. Consider `O=C(Cn1ccnc1)c1ccc2ccccc2c1`, for which the LD50 is 504 mg/kg. `CCOC(C1=NCC(C)(CC)CN1)c1ccc(Cl)cc1` (stereo not given): the LD50 is 110 mg/kg. As to `Cc1c(Cl)c(Br)c(Br)c2[nH]c(C(F)(F)F)nc12`, the LD50 was 23 mg/kg.

For `CCC(C)OC(C[n+]1ccccc1)c1ccccc1` (stereo not given), the median lethal dose (LD50) is 250 mg/kg. On to `COc1ccc(C(Oc2ccccc2)C2=NCCCN2)cc1` (stereo not given), for which the LD50 is 1000 mg/kg. For the compound `NC(N)=[Se]`, the LD50 was 50 mg/kg. Consider `O=C1CN(N=Cc2ccc(-c3ccc([N+](=O)[O-])cc3)o2)C(=O)N1`, for which the LD50 was 7430 mg/kg. For `C/C=N/N(C)C=O`, the LD50 was 320 mg/kg. On to `O=C(O)c1ccc([N+](=O)[O-])cc1`, for which the LD50 was 1960 mg/kg. Turning to `Cc1cccs1`, the median lethal dose (LD50) was 3200 mg/kg. Consider `Oc1ccc(N=Cc2ccccc2)cc1`, for which the median lethal dose (LD50) is 3500 mg/kg. Regarding `NCCNCCO`, the LD50 was 3000 mg/kg. Turning to `CC[N+]1(CC)CCC(OC(=O)C(O)(c2ccccc2)c2ccccc2)C1` (stereo not given), the LD50 was 760 mg/kg. `S=c1[nH]c(=S)[nH]c(=S)[nH]1`: the LD50 was 9500 mg/kg.

`OCC[N+](CCO)(CCO)CCO`: the LD50 is 2250 mg/kg.

With `CC1(C)OCC(COC(=O)Cc2ccc3c(c2)OCc2ccccc2C3=O)O1` (stereo not given), the LD50 is 92 mg/kg. Turning to `N#CCCCCC#N`, the LD50 is 155 mg/kg. For the compound `C=CCOC(=O)C=Cc1ccccc1`, the LD50 was 1520 mg/kg.

Regarding `CC1(C)[C@H](C(=O)O[C@H](C#N)c2cccc(Oc3ccccc3)c2)[C@@H]1/C=C(\Cl)C(F)(F)F` (single isomer, unassigned), the LD50 was 56 mg/kg.

On to `CCCOc1ccc(C(CN(C)C)C(C)CC)cc1Cl` (stereo not given), for which the LD50 is 741 mg/kg. For `CCCCCCCOCCO`, the LD50 is 2280 mg/kg. For the compound `CCOC(=O)CC(=O)NP(=O)(OC)SC` (stereo not given), the LD50 is 125 mg/kg.

As to `COc1cc2ccc(=O)oc2cc1OC`, the LD50 is 292 mg/kg. Take `CCOP(=S)(OCC)SCCS(=O)(=O)CC`: the LD50 is 7.5 mg/kg.

In the case of `CCC1(c2ccccc2)C(=O)N=C(O)NC1=O` (stereo not given), the LD50 was 150 mg/kg. On to `CCCOC(=O)OOC(=O)OCCC`, for which the LD50 is 3400 mg/kg. For `O=C(O)CN(CCO)CCN(CC(=O)O)CC(=O)O`, the LD50 is 10000 mg/kg. Consider `CN(C)C1CC(c2ccccc2)c2ccccc21` (stereo not given), for which the LD50 is 176 mg/kg. Regarding `FC(F)(F)c1nnc2c3ccccc3ccn12`, the 50% lethal dose (LD50) is 660 mg/kg. Consider `COc1ccccc1OC(=O)[C@H](C)c1ccc(CC(C)C)cc1`, for which the LD50 was 2060 mg/kg. Regarding `CC(=O)C1(O)CCC(c2ccccc2)CC1` (stereo not given), the LD50 is 8000 mg/kg. Turning to `Cc1cccnc1-n1c(C)nc2ccccc2c1=O`, the LD50 was 395 mg/kg. Take `NC[C@H]1CC[C@H](C(=O)Oc2ccc(CCC(=O)O)cc2)CC1`: the median lethal dose (LD50) is 1500 mg/kg.

Take `CCN(CC)CCNC(=O)C(C)(C)Oc1ccc(Cl)cc1`: the LD50 was 300 mg/kg.

For `CCN(CC)CCSC(=O)C(c1ccccc1)c1ccccc1`, the LD50 is 2720 mg/kg.

Take `Cc1cc2[nH]c(C(F)(F)F)nc2c([N+](=O)[O-])c1C`: the LD50 is 67 mg/kg. For `ClCc1c(Cl)cc(Cl)cc1Cl`, the LD50 is 3080 mg/kg. Consider `CCCSP(=O)(OC)OC`, for which the LD50 was 9.4 mg/kg. `CCOC(=O)CN(C(=O)CCl)c1c(CC)cccc1CC`: the LD50 is 2300 mg/kg. On to `CCC(=O)Nc1ccc2nc(C(F)(F)F)[nH]c2c1`, for which the median lethal dose (LD50) was 8.92 mg/kg. `CCOC(=O)c1ccc(OC)cc1`: the LD50 is 2040 mg/kg. For `CN(C)C(=O)SCCCCOc1ccccc1`, the LD50 was 1150 mg/kg. For `O=C(Nc1nnc(CCN2c3ccccc3Sc3ccccc32)s1)c1ccccc1`, the LD50 was 3220 mg/kg.

Turning to `CC(O)C(c1ccc2c(c1)OCO2)N1CCOCC1` (stereo not given), the LD50 is 2470 mg/kg. On to `C/C(=C/CC[C@@]1(C)C2C[C@@H]3[C@H](C2)C31C)CO`, for which the LD50 is 3800 mg/kg. On to `N#Cc1ccc([N+](=O)[O-])cc1`, for which the LD50 is 30 mg/kg. As for `CCOP(=S)(OCC)SCn1nc(CC)ccc1=O`, the LD50 is 18.8 mg/kg. As for `O=C1[C@H]2CCCC[C@H]2C(=O)N1CCCCN1CCN(c2nsc3ccccc23)CC1`, the LD50 was 870 mg/kg. For `CCC1C(C)=NN=C(c2ccc(OC)c(OC)c2)c2cc(OC)c(OC)cc21` (stereo not given), the median lethal dose (LD50) is 825 mg/kg. On to `C[N+](C)([O-])CCC=C1c2ccccc2CCc2ccccc21`, for which the LD50 is 1800 mg/kg. Consider `Nc1cc(S(=O)(=O)O)cc2cc(S(=O)(=O)O)c(/N=N\c3ccc(-c4ccc(/N=N/c5c(S(=O)(=O)O)cc6cc(S(=O)(=O)O)cc(N)c6c5O)cc4)cc3)c(O)c12`, for which the LD50 was 8760 mg/kg.

With `CCCC(Cc1ccccc1)N1CCCC1` (stereo not given), the median lethal dose (LD50) was 278 mg/kg and 157 mg/kg. For `O=[N+]([O-])c1ccccc1C1OCC(CCl)O1` (stereo not given), the LD50 was 65 mg/kg. Take `Oc1c(Cl)cc2[nH]c(C(F)(F)F)nc2c1Cl`: the LD50 was 58 mg/kg. As to `COc1ccc([N+](=O)[O-])cc1Cl`, the LD50 is 1180 mg/kg. Turning to `Cc1nc(Cn2cnc3c2c(=O)n(C)c(=O)n3C)no1`, the LD50 was 1550 mg/kg. On to `CC(=O)NC(N)=S`, for which the LD50 was 50 mg/kg. Take `CCCCn1c(=O)n(CCC)c(=O)c2[nH]c(C)nc21`: the LD50 is 15 mg/kg.

With `O=C1c2ccccc2C(=O)C1c1ccccc1`, the LD50 is 163 mg/kg.

Consider `CCN(CC)CC(=O)c1c2c(cc3c1CCC3)CCC2`, for which the median lethal dose (LD50) is 2220 mg/kg. For `COc1ccc2c(c1)c(CC(=O)OCOC(=O)c1ccccc1)c(C)n2C(=O)c1ccc(Cl)cc1`, the LD50 was 73 mg/kg.

For `CC(C)(SC(=O)N1CCCCC1)c1ccccc1`, the LD50 is 946 mg/kg. In the case of `COc1cc(C[C@H]2c3cc(OC)c(OC)cc3CCN2C)c(Oc2cc3c(cc2OC)-c2c(OC)c(OC)cc4c2[C@H](C3)N(C)CC4)cc1OC`, the LD50 was 1500 mg/kg. On to `O=c1c2nocc2c(-c2ccccc2)nn1-c1ccccc1`, for which the LD50 is 1000 mg/kg. Regarding `O=C1c2ccccc2C(=O)C1c1ccc(C(F)(F)F)cc1`, the LD50 was 198 mg/kg. Turning to `CCn1c(=O)oc2ccc(Cl)cc21`, the LD50 is 1350 mg/kg. As to `COc1ccc(N)cc1OC`, the LD50 is 681 mg/kg. Consider `O=C1C=CC(=O)N1C(=O)NCNC(=O)N1C(=O)C=CC1=O`, for which the LD50 was 1420 mg/kg. As to `CCN(CC)C(=O)CCC(C)=O`, the LD50 was 4760 mg/kg.

As to `CCNc1cccc(C)c1`, the LD50 is 580 mg/kg. Consider `Cc1ccc(C(C)C)cc1`, for which the LD50 is 4750 mg/kg. For the compound `Cc1c(Cl)c(Br)c(Cl)c2[nH]c(C(F)(F)F)nc12`, the LD50 was 18.3 mg/kg. In the case of `CCOC(=O)C1(c2ccccc2)CCN(CCC(C#N)(c2ccccc2)c2ccccc2)CC1`, the LD50 was 221 mg/kg.

With `CC(Cc1ccccc1)NCCCCl` (stereo not given), the LD50 was 410 mg/kg. For the compound `COC(=O)c1ccc(NC(C)=O)o1`, the LD50 was 1200 mg/kg. On to `CCCN(C)C`, for which the LD50 was 500 mg/kg.

`Clc1cc(Cl)c(Cl)cc1Cl`: the LD50 was 1500 mg/kg. Consider `C1CCN2C[C@@H]3C[C@@H](C[C@H]2C1)N1CCCC[C@@H]31`, for which the LD50 is 960 mg/kg.

`OCC(CO)N[C@H]1C[C@](O)(CO)[C@@H](O)[C@H](O)[C@H]1O`: the LD50 is 20000 mg/kg. With `CNC(=O)Oc1ccc(NC(=O)OC)c(C(C)C)c1`, the LD50 is 27 mg/kg.

Take `O=C(Nc1nc(-c2ccccc2)cs1)OCC(Cl)(Cl)Cl`: the LD50 is 550 mg/kg. In the case of `CN(C)c1ccc(C=Cc2ccccc2)cc1`, the LD50 was 50 mg/kg.
